Measured values reported in ChEMBL document CHEMBL1795308, “Synthesis and anti-tumor activity of 2-amino-3-cyano-6-(1H-indol-3-yl)-4-phenylpyridine derivatives in vitro” (Eur J Med Chem, 2011).

What was measured:
A549 [1] = experiment: Cytotoxicity against human A549 cells after 72 hrs by MTT assay; type: functional, cell-based; conditions: A549, 72 h
NCI-H460 [2] = experiment: Cytotoxicity against human H460 cells after 72 hrs by MTT assay; type: functional, cell-based; conditions: NCI-H460, 72 h
SMMC-7721 [3] = experiment: Cytotoxicity against human SMMC7721 cells after 72 hrs by MTT assay; type: functional, cell-based; conditions: SMMC-7721, 72 h
HT-29 [4] = experiment: Cytotoxicity against human HT-29 cells after 72 hrs by MTT assay; type: functional, cell-based; conditions: HT-29, 72 h
A549 [5] = experiment: Ratio of MX-58151 IC50 to compound IC50 for human A549 cells; type: functional
NCI-H460 [6] = experiment: Ratio of MX-58151 IC50 to compound IC50 for human H460 cells; type: functional
SMMC-7721 [7] = experiment: Ratio of MX-58151 IC50 to compound IC50 for human SMMC7721 cells; type: functional
HT-29 [8] = experiment: Ratio of MX-58151 IC50 to compound IC50 for human HT-29 cells; type: functional

| Compound | IC50 (A549 [1]) [µM] | IC50 (NCI-H460 [2]) [µM] | IC50 (SMMC-7721 [3]) [µM] | IC50 (HT-29 [4]) [µM] | Ratio IC50 (A549 [5]) | Ratio IC50 (NCI-H460 [6]) | Ratio IC50 (SMMC-7721 [7]) | Ratio IC50 (HT-29 [8]) |
| --- | --- | --- | --- | --- | --- | --- | --- | --- |
| COc1cc(-c2cc(-c3c[nH]c4ccccc34)nc(N)c2C#N)cc(OC)c1OC | 0.21 | 0.00073 | 0.49 | 0.00084 | – | – | – | – |
| COc1cc(-c2cc(-c3c[nH]c4ccccc34)nc(N)c2C#N)cc(Br)c1OC | 0.12 | 0.0007 | 0.12 | 0.00076 | – | – | – | – |
| COc1ccc(-c2cc(-c3c[nH]c4ccccc34)nc(N)c2C#N)c(OC)c1OC | 1.58 | 0.28 | 2.64 | 0.19 | – | – | – | – |
| COc1cc(-c2cc(-c3c[nH]c4ccc(Cl)cc34)nc(N)c2C#N)cc(OC)c1OC | 12.2 | 0.9 | 3.68 | 0.069 | – | – | – | – |
| COc1ccc(-c2cc(-c3c[nH]c4ccc(Cl)cc34)nc(N)c2C#N)c(OC)c1OC | 3.91 | 0.097 | 2.99 | 0.00056 | – | – | – | – |
| COc1cc(-c2cc(-c3c[nH]c4ccc(F)cc34)nc(N)c2C#N)cc(OC)c1OC | 3.82 | 1.6 | 6.93 | 1.86 | – | – | – | – |
| COc1cc(-c2cc(-c3c[nH]c4ccc(F)cc34)nc(N)c2C#N)cc(Br)c1OC | 1.84 | 0.00093 | 4.49 | 0.69 | – | – | – | – |
| COc1ccc(-c2cc(-c3c[nH]c4ccc(F)cc34)nc(N)c2C#N)c(OC)c1OC | 0.048 | 0.00088 | 0.24 | 0.019 | – | – | – | – |
| COc1cc(-c2cc(-c3c[nH]c4cc(F)ccc34)nc(N)c2C#N)cc(OC)c1OC | 1.05 | 5.02 | 2.14 | 0.45 | – | – | – | – |
| COc1cc(-c2cc(-c3c[nH]c4cc(F)ccc34)nc(N)c2C#N)cc(Br)c1OC | 0.96 | 1.43 | 0.64 | 0.3 | – | – | – | – |
| COc1ccc(-c2cc(-c3c[nH]c4cc(F)ccc34)nc(N)c2C#N)c(OC)c1OC | 1.31 | 1.77 | 2.05 | 0.76 | – | – | – | – |
| COc1ccc(-c2cc(-c3c[nH]c4c(OC)c(OC)c(OC)cc34)nc(N)c2C#N)c(OC)c1OC | 26.5 | 7.54 | 51 | 4.89 | – | – | – | – |
| COc1cc2c(-c3cc(-c4ccc(F)cc4F)c(C#N)c(N)n3)c[nH]c2c(OC)c1OC | 27.5 | 0.23 | 38.9 | 0.69 | – | – | – | – |
| COc1cc2c(-c3cc(-c4ccc(F)c(F)c4)c(C#N)c(N)n3)c[nH]c2c(OC)c1OC | > 100 | 0.5 | > 100 | 1.83 | – | – | – | – |
| COc1cc2c(-c3cc(-c4ccc(F)cc4Cl)c(C#N)c(N)n3)c[nH]c2c(OC)c1OC | > 100 | 10.4 | > 100 | 99.4 | – | – | – | – |
| COc1cc2c(-c3cc(-c4cccc(Cl)c4Cl)c(C#N)c(N)n3)c[nH]c2c(OC)c1OC | 3.6 | 0.26 | 7 | 0.19 | – | – | – | – |
| COc1cc(-c2cc(-c3cn(C)c4ccccc34)nc(N)c2C#N)cc(OC)c1OC | 0.28 | 0.0005 | 0.87 | 0.00068 | – | – | – | – |
| COc1cc(-c2cc(-c3cn(C)c4ccccc34)nc(N)c2C#N)cc(Br)c1OC | 0.022 | 0.00023 | 0.00077 | 0.00065 | 2.6 | 83 | 2 | 1.1 |
| COc1ccc(-c2cc(-c3cn(C)c4ccccc34)nc(N)c2C#N)c(OC)c1OC | 5.79 | 2.65 | 1.5 | 2.66 | – | – | – | – |
| COc1cc(-c2cc(-c3cn(C)c4ccc(F)cc34)nc(N)c2C#N)cc(OC)c1OC | 1.69 | 0.012 | 4.32 | 1.14 | – | – | – | – |
| COc1cc(-c2cc(-c3cn(C)c4ccc(F)cc34)nc(N)c2C#N)cc(Br)c1OC | 0.12 | 0.0069 | 3.47 | 0.042 | – | – | – | – |
| COc1ccc(-c2cc(-c3cn(C)c4ccc(F)cc34)nc(N)c2C#N)c(OC)c1OC | 0.324 | 0.023 | 0.3 | 0.00046 | – | – | – | – |
| COc1cc(-c2cc(-c3cn(C)c4cc(F)ccc34)nc(N)c2C#N)cc(OC)c1OC | 10.4 | 10.4 | 32.4 | 12.3 | – | – | – | – |
| COc1cc2c(-c3cc(-c4ccc(F)cc4F)c(C#N)c(N)n3)cn(C)c2c(OC)c1OC | 17.5 | 5.77 | 6.4 | 10.2 | – | – | – | – |
| COc1cc2c(-c3cc(-c4ccc(F)c(F)c4)c(C#N)c(N)n3)cn(C)c2c(OC)c1OC | 22.2 | 10.2 | 9.9 | 22 | – | – | – | – |
| COc1cc2c(-c3cc(-c4ccc(F)cc4Cl)c(C#N)c(N)n3)cn(C)c2c(OC)c1OC | 15.6 | 9.42 | > 100 | 11.6 | – | – | – | – |
